This is an account of results in patent publication US9371336B2, “Compounds for treating spinal muscular atrophy” (PTC Therapeutics Inc., priority 2012, dated 2016).

The test system of test [1] is Smn protein. The test can be described thus: Smn protein assay (HTRF) in cultured cells (SMA patient fibroblasts GM03813). Format: cell-based, human. To be noted: 48 hours; for EC1.5x for Smn protein expression: SMA patient fibroblast cells (GM03813), HTRF, 7-point concentration data, concentration producing 1.5 times Smn protein vs DMSO vehicle control; for maximum fold (Fold) increase of Smn protein: SMA patient fibroblast cells, 7-point concentration curve, relative to vehicle control. The procedure: The Smn HTRF (homogeneous time resolved fluorescence) assay is used to quantify the level of Smn protein in SMA patient fibroblast cells treated with test compounds.
Cells are thawed and cultured in DMEM-10% FBS for 72 hours. Cells are trypsinized, counted and re-suspended to a concentration of 25,000 cells/mL in DMEM-10% FBS. The cell suspension is plated at 5,000 cells per well in a 96 well microtiter plate and incubated for 3 to 5 hours. […] Test compounds are serially diluted 3.16-fold in 100% DMSO to generate a 7-point concentration curve. 1 μL of test compound solution is transferred to cell-containing wells and cells are incubated for 48 hours in a cell culture incubator (37° C., 5% CO2, 100% relative humidity). Triplicate samples are set up for each test compound concentration. After 48 hours, the supernatant is removed from the wells and 25 μL of the RIPA lysis buffer, containing protease inhibitors, is added to the wells and incubated with shaking at room temperature for 1 hour. 25 μL of the diluent is added and then 35 μL of the resulting lysate is transferred to a 384-well plate, where each well contains 5 μL of the antibody solution (1:100 dilution of anti-SMN d2 and anti-SMN kryptate in SMN reconstitution buffer). The plate is centrifuged for 1 minute to bring the solution to the bottom of the wells, then incubated overnight at room temperature. Fluorescence for each well of the plate at 665 nm and 620 nm is measured on an EnVision multilabel plate reader (Perkin-Elmer).
The normalized fluorescence signal is calculated for each sample, Blank and vehicle control well by dividing the signal at 665 nm by the signal at 620 nm. Normalizing the signal accounts for possible fluorescence quenching due to the matrix effect of the lysate. The ΔF value (a measurement of Smn protein abundance as a percent value) for each sample well is calculated by subtracting the normalized average fluorescence for the Blank control wells from the normalized fluorescence for each sample well, then dividing this difference by the normalized average fluorescence for the Blank control wells and multiplying the resulting value by 100. The ΔF value for each sample well represents the Smn protein abundance from test compound-treated samples. The ΔF value for each sample well is divided by the ΔF value for the vehicle control wells to calculate the fold increase in Smn protein abundance relative to the vehicle control.

Test [2] relates to SMN2 minigene mRNA (SMN2-A minigene construct). As to the kind of experiment: SMN2 minigene mRNA splicing RT-qPCR assay in cultured cells. Format: cell-based, human. Particulars: Homo sapiens, HEK293-H; HEK293H cells stably transfected with SMN2-A minigene, 24 hours, 7-point concentration data; concentration giving 1.5-fold SMN2 full length mRNA relative to vehicle-treated cells; read-out: EC1.5x for production of full length SMN2 mRNA. Here is the method: The reverse transcription-quantitative PCR-based (RT-qPCR) assay is used to quantify the level of the full length SMN2 minigene mRNA containing SMN2 exon 7 in a HEK293H cell line stably transfected with said minigene and treated with a test compound.
HEK293H cells stably transfected with the SMN2-A minigene construct described above (10,000 cells/well) are seeded in 200 μL of cell culture medium (DMEM plus 10% FBS, with 200 μg/mL hygromycin) in 96-well flat-bottom plates and the plate is immediately swirled to ensure proper dispersal of cells, forming an even monolayer of cells. Cells are allowed to attach for at least 4-6 hours. Test compounds are serially diluted 3.16-fold in 100% DMSO to generate a 7-point concentration curve. A solution of test compound (1 μL, 200× in DMSO) is added to each cell-containing well and the plate is incubated for 24 hours in a cell culture incubator (37° C., 5% CO2, 100% relative humidity). Two replicates are prepared for each test compound concentration. The cells are then lysed in Cells-To-Ct lysis buffer and the lysate is stored at −80° C.
Primer SMN Forward A (SEQ ID NO. 1) hybridizes to a nucleotide sequence in exon 7 (nucleotide 22 to nucleotide 40), primer SMN Reverse A (SEQ ID NO. 2) hybridizes to a nucleotide sequence in the coding sequence of Firefly luciferase, SMN Probe A (SEQ ID NO. 3) hybridizes to a nucleotide sequence in exon 7 (nucleotide 50 to nucleotide 54) and exon 8 (nucleotide 1 to nucleotide 21). The combination of these three oligonucleotides detects only SMN1 or SMN2 minigenes (RT-qPCR) and will not detect endogenous SMN1 or SMN2 genes.
The SMN forward and reverse primers are used at final concentrations of 0.4 μM. The SMN probe is used at a final concentration of 0.15 μM. The GAPDH primers are used at final concentrations of 0.2 μM and the probe at 0.15 μM.
The SMN2-minigene GAPDH mix (15 μL total volume) is prepared by combining 7.5 μL of 2×RT-PCR buffer, 0.4 μL of 25×RT-PCR enzyme mix, 0.75 μL of 20×GAPDH primer-probe mix, 4.0075 μL of water, 2 μL of 10-fold diluted cell lysate, 0.06 μL of 100 μM SMN forward primer, 0.06 μL of 100 μM SMN reverse primer, and 0.225 μL of 100 μM SMN probe.
PCR is carried out at the following temperatures for the indicated time: Step 1: 48° C. (15 min); Step 2: 95° C. (10 min); Step 3: 95° C. (15 sec); Step 4: 60° C. (1 min); then repeat Steps 3 and 4 for a total of 40 cycles.
Each reaction mixture contains both SMN2-A minigene and GAPDH primers/probe sets (multiplex design), allowing simultaneous measurement of the levels of two transcripts.
Two SMN spliced products are generated from the SMN2 minigene. The first spliced product containing exon 7, corresponding to SMN2 full length mRNA, is referred to herein using the term “SMN2 minigene FL.” The second spliced product lacking exon 7 is referred to herein using the term “SMN2 minigene Δ7.”
The increase of SMN2 minigene FL mRNA relative to that in cells treated with vehicle control is determined from real-time PCR data using a modified ΔΔCt method (as described in Livak and Schmittgen, Methods, 2001, 25:402-8). The amplification efficiency (E) is calculated from the slope of the amplification curve for SMN2 minigene FL and GAPDH individually. The abundances of SMN2 minigene FL and GAPDH are then calculated as (1+E)^−Ct, where Ct is the threshold value for each amplicon. The abundance of SMN2 minigene FL is normalized to GAPDH abundance. The normalized SMN2 minigene FL abundance from test compound-treated samples is then divided by normalized SMN2 minigene FL abundance from vehicle-treated cells to determine the level of SMN2 FL mRNA relative to vehicle control.
In general terms: In qPCR the cycle at which signal appears reflects the starting amount.

Some results are limits rather than exact numbers.

Turning to `Cl.O=c1oc2nc(N3CCNCC3)ccc2cc1-c1cn2cccnc2n1` [Cpd 112, 3-(imidazo[1,2-a]pyrimidin-2-yl)-7-(piperazin-1-yl)-2H-pyrano[2,3-b]pyridin-2-one hydrochloride], in test [1], the “EC1.5x for Smn protein expression” value is “** (an EC1.5× between >1 and ≦3 μM is indicated by two stars (**))”; the “maximum fold (Fold) increase of Smn protein” value (“maximum fold (Fold) increase” below) is “*** (a fold increase between >1.35 and ≦1.5 is indicated by three stars (***))”. For the same compound, the EC (1.5-fold) in test [2] lay within 0.1 to 0.3 µM.

Consider `Cl.O=c1oc2nc(N3CCNCC3)ccc2cc1-c1nc2c(Cl)cccc2s1` [Cpd 2, 3-(4-chloro-1,3-benzothiazol-2-yl)-7-(piperazin-1-yl)-2H-pyrano[2,3-b]pyridin-2-one hydrochloride], for which, in test [1], the “EC1.5x for Smn protein expression” value is given as “**** (an EC1.5×≦0.3 μM is indicated by four stars (****))” and the “maximum fold (Fold) increase” value was “***** (a fold increase >1.65 is indicated by five stars (*****))”. The EC (1.5-fold) in test [2] was no more than 0.1 µM.

Regarding `Cc1ccc2nc(-c3cc4cnc(N5CCNCC5)cc4oc3=O)cn2c1` [Cpd 33, 3-(6-methylimidazo[1,2-a]pyridin-2-yl)-7-(piperazin-1-yl)-2H-pyrano[3,2-c]pyridin-2-one], in test [1], the “EC1.5x for Smn protein expression” value was “* (An EC1.5× for Smn protein expression between >3 μM and ≦10 μM is indicated by one star (*))”; the “maximum fold (Fold) increase” value is “*** (a fold increase between >1.35 and ≦1.5 is indicated by three stars (***))”. Further, the EC (1.5-fold) in test [2] lay in the range of 1 to 3 µM.

As for `Cc1cn2cc(-c3cc4cnc(N5CCNCC5)cc4oc3=O)nc2s1.Cl` [Cpd 41, 3-(2-methylimidazo[2,1-b][1,3]thiazol-6-yl)-7-(piperazin-1-yl)-2H-pyrano[3,2-c]pyridin-2-one hydrochloride], the “maximum fold (Fold) increase” value in test [1] is “** (a fold increase between >1.2 and ≦1.35 is indicated by two stars (**))”. For the same compound, the EC (1.5-fold) in test [2] fell in the range of 0.3 to 1 µM.

With `Cc1ccn2cc(-c3cc4cnc(N5CCN(C)CC5)cc4oc3=O)nc2c1` [Cpd 57, 3-(7-methylimidazo[1,2-a]pyridin-2-yl)-7-(4-methylpiperazin-1-yl)-2H-pyrano[3,2-c]pyridin-2-one], in test [1], the “maximum fold (Fold) increase” value is “** (a fold increase between >1.2 and ≦1.35 is indicated by two stars (**))”. Besides, the EC (1.5-fold) in test [2] is 0.3 to 1 µM.

For `Cc1cc(Cl)c2nc(-c3cc4cnc(N5CCNCC5)cc4oc3=O)cn2c1.Cl` [Cpd 35, 3-(8-chloro-6-methylimidazo[1,2-a]pyridin-2-yl)-7-(piperazin-1-yl)-2H-pyrano[3,2-c]pyridin-2-one hydrochloride], the “maximum fold (Fold) increase” value in test [1] is “** (a fold increase between >1.2 and ≦1.35 is indicated by two stars (**))”. Also, the EC (1.5-fold) in test [2] was 3 to 30 µM.

With `Cc1cc(F)c2nc(-c3cc4ccc(N5C[C@@H]6C[C@H]5CN6)nc4oc3=O)cn2c1` [Cpd 136, 7-[(1S,4S)-2,5-diazabicyclo[2.2.1]hept-2-yl]-3-(8-fluoro-6-methylimidazo[1,2-a]pyridin-2-yl)-2H-pyrano[2,3-b]pyridin-2-one], in test [1], the “EC1.5x for Smn protein expression” value is “*** (an EC1.5× between >0.3 μM and ≦1 μM is indicated by three stars (***))”; the “maximum fold (Fold) increase” value is “*** (a fold increase between >1.35 and ≦1.5 is indicated by three stars (***))”. In test [2], the EC (1.5-fold) was no more than 0.1 µM.

Consider `C[C@H]1CNCCN1c1ccc2cc(-c3cn4cccc(F)c4n3)c(=O)oc2n1` [Cpd 63, 3-(8-fluoroimidazo[1,2-a]pyridin-2-yl)-7-[(2S)-2-methylpiperazin-1-yl]-2H-pyrano[2,3-b]pyridin-2-one], for which, in test [1], the “EC1.5x for Smn protein expression” value is “**** (an EC1.5×≦0.3 μM is indicated by four stars (****))”; the “maximum fold (Fold) increase” value was “**** (a fold increase between >1.5 and ≦1.65 is indicated by four stars (****))”. Besides, in test [2], the EC (1.5-fold) is no more than 0.1 µM.

As to `O=c1oc2nc(N3CCN(CCCl)CC3)ccc2cc1-c1nc2ccccc2s1` [Cpd 4, 3-(1,3-benzothiazol-2-yl)-7-[4-(2-chloroethyl)piperazin-1-yl]-2H-pyrano[2,3-b]pyridin-2-one], the “maximum fold (Fold) increase” value in test [1] is “** (a fold increase between >1.2 and ≦1.35 is indicated by two stars (**))”. In addition, the EC (1.5-fold) in test [2] is 1 to 3 µM.
